Consider 6 molecules from US9822179B2, “Recombinant TNF ligand family member polypeptides with antibody binding domain and uses therefor” (UNIVERSITAT STUTTGART, priority 2011, dated 2017).

Assay [1] has as its system EGFR+ Huh-7 hepatocellular carcinoma cells. The assay can be described thus: EGFR-directed induction of cell death in Huh-7 cells, serial dilutions of protein, crystal violet. It counts as cell-based. The note with it: 250 ng/ml bortezomib, caspase inhibitors 10 μM, 16 h. The method, then:
(§1) After 16 h, cell viability was determined using MTT staining (Colo 205) or crystal violet staining (Huh-7) and data were normalized using bortezomib-treated cells as control (mean SEM, n=3). (B) 1×10^4 Colo205 cells per well were grown in 96-well plates using medium with 0.1% FCS. […] (C) 1×10^4 Huh-7 cells per well were grown in 96-well plates and treated with 20 ng/ml bortezomib or with a combination of bortezomib and 10 μM zVADfmk.
After 16 h, cell viability was determined using crystal violet staining.
(§2) As a positive control, cells were killed with 0.25% Triton X-100. Cell death assays with Huh-7 and HepG2 cells were performed in the absence (FIG. 6, Jurkat cells) or presence of Bortezomib (FIG. 7, Huh-7: 250 ng/ml, FIG. 6, HepG2: 500 ng/ml, FIG. 18, Huh-7: 250 ng/ml), Selleck Chemicals, Houston, Tex.). Bortezomib was added 30 min prior incubation with the proapoptotic ligands to sensitize cells for the induction of cell death (FIGS. 6, 7). Alternatively, cells were preincubated for 30 min with the indicated concentrations of TRAIL fusion proteins followed by addition of serial dilutions of Bortezomib (FIG. 8). […] After 16 h incubation, cell viability was determined either by crystal violet staining (Huh-7, HepG2) or the MTT method (Jurkat) (Wuest et al., 2002). In the latter case a lysis buffer consisting of 15% SDS in DMF/H2O (1:1), pH 4.5 (with […]) acetic acid) was used.

The next assay relates to Colo205 cells. As to the kind of experiment: Caspase dependence of cell death in Colo205 cells, MTT. It counts as cell-based. The note with it: 25 ng/ml bortezomib, caspase inhibitors 20 μM, 16 h. On the procedure: as §1
The subject of another assay is Colo205 xenograft tumor. The assay can be described thus: Colo205 xenograft tumor model.
For assay [2], the system named is EGFR low/negative HepG2 cells. As to the kind of experiment: Target-independent induction of cell death, HepG2, crystal violet. It counts as cell-based. The note with it: comparator named in value. The method, then:
(§3) Cell viability was determined using crystal violet staining. Results from four independent experiments are shown (mean±S.E.M.). (B) Jurkat cells (1×10^5/well) were used for a similar experiment as described in (A). Jurkat cells were not sensitized. Results from three independent experiments are shown (mean±S.E.M.). Viability of Jurkat cells was determined using the MTT assay.
as §2

The subject of the next assay is Jurkat cells. The assay can be described thus: Target-independent induction of cell death, Jurkat, MTT assay. It counts as cell-based. Conditions: not sensitized; SEQ ID NO: 102 compared to KillerTRAIL. The method, then:
as §3, §2
A general note: Tetrazolium assays rely on reduction of a dye to a coloured formazan, in cell work by metabolically active cells.

Assay [3] deals with Huh-7 hepatocellular carcinoma cells. As to the kind of experiment: Cell death in Huh-7 cells, constant protein concentration, serial dilutions of Bortezomib. In kind it is cell-based. Conditions: protein concentration of 1 nM and above. On the procedure: Results from three independent experiments are shown (mean±S.E.M.).
as §2

The mark [4] stands for this setting: 8 daily i.p. injections of 0.45 nmol + bortezomib every second day.

Where a SMILES comes first, the peptide text is derived from it. The star is where a group is joined. Cbz = O=C(OCc1ccccc1)*; CH2F = FC*

Description for Colo205 xenograft tumor: Arrows, protein application; asterisks, bortezomib application; symbols, mean of tumor volumes 95% confidence interval (CI), n=12 tumors/treatment group.
8-week-old female NMRI nu/nu mice (Janvier) were injected s.c. with 3×10^6 Colo205 cells in 100 μl PBS at left and right dorsal sides. Treatment started 6 days after tumor cell inoculation when tumors reached about 100 mm^3. […] On day 1, 3, 5 and 7 of treatment, mice received additionally 5 μg bortezomib in 100 μl PBS i.p. three hours before protein injection. The control groups received 100 μl PBS or 5 μg bortezomib at the same time intervals. […] The Tukey's test was applied for statistics.

Regarding `COC(=O)C[C@H](NC(=O)[C@H](C)NC(=O)[C@@H](NC(=O)OCc1ccccc1)C(C)C)C(=O)CF` [zVADfmk] (Cbz-Val-Ala-Asp(OMe)-CH2F), the “block of TRAIL fusion protein-induced cell death by inhibitor” value (“block … by inhibitor” below) (in assay [1]; in the assay with Colo205 cells) was “nearly complete block of cell death” each time.
Consider `CC(C)C[C@H](NC(=O)[C@H](Cc1ccccc1)NC(=O)c1cnccn1)B(O)O` [Bortezomib], for which the “effect on tumor growth” value with Colo205 xenograft tumor (bortezomib by itself, 5 μg i.p. on day 1, 3, 5 and 7) was “did not interfere with progressive tumor growth”.
`COC(=O)CC[C@H](NC(=O)[C@H](CC(=O)OC)NC(=O)OCc1ccccc1)C(=O)N[C@H](C(=O)N[C@@H](CC(=O)OC)C(=O)CF)C(C)C` [zDEVDfmk]: the “block … by inhibitor” value (in assay [1]; in the assay with Colo205 cells) was “nearly complete block of cell death” throughout.
With `CN1C(=O)C(Cc2c[nH]c3ccccc23)NC1=S` (stereo not drawn) [necrostatin-1], the “block … by inhibitor” value (in assay [1]; in the assay with Colo205 cells) was “failure of necrostatin-1 to prevent or reduce cell death” throughout.

B1: KillerTRAIL: commercially available highly active TRAIL preparation (Enzo Lifesciences / Axxora) (protein, UniProt P50591 39-281, looked up)
extracellular domain: TNELKQMQDKYSKSGIACFLKEDDSYWDPNDEESMNSPCWQVKWQLRQLVRKMILRTSEETISTVQEKQQNISPLVRERGPQRVAAHITGTRGRSNTLSSPNSKNEKALGRKINSWESSRSGHSFLSNLHLRNGELVIHEKGFYYIYSQTYFRFQEEIKENTKNDKQMVQYIYKYTSYPDPILLMKSARNSCWSKDAEYGLYSIYQGGIFELKENDRIFVSVTNEHLIDMDHEASFFGAFLVG
modifications: extracellular domain
B1: the “bioactivity on target negative cells, comparison in words” value in assay [2] was “comparable with the activity of SEQ ID NO: 96”.

B2: SEQ ID NO: 104: single chain TRAIL, three copies of TRAIL 95-281 linked by (GGGS)2 linkers, N-terminal FLAG tag, no component B (protein)
chain: TSEETISTVQEKQQNISPLVRERGPQRVAAHITGTRGRSNTLSSPNSKNEKALGRKINSWESSRSGHSFLSNLHLRNGELVIHEKGFYYIYSQTYFRFQEEIKENTKNDKQMVQYIYKYTSYPDPILLMKSARNSCWSKDAEYGLYSIYQGGIFELKENDRIFVSVTNEHLIDMDHEASFFGAFLVGGGGSGGGSTSEETISTVQEKQQNISPLVRERGPQRVAAHITGTRGRSNTLSSPNSKNEKALGRKINSWESSRSGHSFLSNLHLRNGELVIHEKGFYYIYSQTYFRFQEEIKENTKNDKQMVQYIYKYTSYPDPILLMKSARNSCWSKDAEYGLYSIYQGGIFELKENDRIFVSVTNEHLIDMDHEASFFGAFLVGGGGSGGGSTSEETISTVQEKQQNISPLVRERGPQRVAAHITGTRGRSNTLSSPNSKNEKALGRKINSWESSRSGHSFLSNLHLRNGELVIHEKGFYYIYSQTYFRFQEEIKENTKNDKQMVQYIYKYTSYPDPILLMKSARNSCWSKDAEYGLYSIYQGGIFELKENDRIFVSVTNEHLIDMDHEASFFGAFLVG
modifications: scTRAIL fusion protein
notes: single chain TRAIL, three copies of TRAIL 95-281 linked by (GGGS)2 linkers, N-terminal FLAG tag, no component B
Take B2: in the assay with Colo205 xenograft tumor (setting [4]), the “effect on tumor growth” value was “delayed tumor growth” and the regression of tumors result is “did not induce regression of tumors”. The “apoptosis-inducing activity on Jurkat cells” value with Jurkat cells is listed as “no reactivity”. The “induction of apoptosis when sensitized with Bortezomib” value in assay [3] is recorded as “nearly equally efficient in induction of complete apoptosis”.
